Tested on: Escherichia coli strain ATCC25922
Test: standard microdilution assay to determine minimum inhibitory concentrations (MICs)
Format: cell-based
Summary of the method: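 Broth microdilution per CLSI (M7-A8/M100-S20), 100 μl final volume, with reference-strain quality control; MIC is the lowest inhibitory concentration. Scored "+"/"−" against a 16 micrograms/ml cutoff, "N/A" where unavailable.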

[1] = Escherichia coli strain ATCC25922, microdilution
[2] = Escherichia coli strain ATCC25922, standard microdilution assay

Row | Compound | E. coli ATCC25922 MIC [1] | E. coli ATCC25922 MIC [2]
1 | NCCCCc1cc(Cl)c(F)c(-c2cc3cn(-c4ccc(CNCCCN=C(N)N)cc4)c(=O)nc3[nH]2)c1 [Compound 91] | + (a “+” indicates that the compound has an MIC value of 16 micrograms/ml or less) | –
2 | CCc1cc(CCCC(C)N)cc(-c2cc3cn(-c4ccc(CNCCCNC(=N)N)cc4)c(=O)nc3[nH]2)c1Cl (centres unmarked) [Compound 283] | + (a “+” indicates that the compound has an MIC value of 16 micrograms/ml or less) | –
3 | CN=C(N)NCCCNC(C)c1ccc(-n2cc3cc(-c4cc(CCCC(C)N)cc(Cl)c4F)[nH]c3nc2=O)cc1 (centres unmarked) [Compound 348] | – | + (a “+” indicates that the compound has an MIC value of 16 micrograms/ml or less)
4 | N=C(N)NCCCNCc1ccc(-n2cc3cc(-c4cc(C5CC5CN)cc(C(F)(F)F)c4)[nH]c3nc2=O)cc1 (centres unmarked) [Compound 110] | + (a “+” indicates that the compound has an MIC value of 16 micrograms/ml or less) | –
5 | CNC(C)CCCc1cc(-c2cc3cn(-c4ccc(C(C)NCCCNC(=N)N)cc4)c(=O)nc3[nH]2)cc(C(F)(F)F)c1 (centres unmarked) [Compound 290] | + (a “+” indicates that the compound has an MIC value of 16 micrograms/ml or less) | –
6 | C[C@H](N)CCCc1cc(-c2cc3cn(-c4ccc([C@H](C)NCCCNC(=N)N)cc4)c(=O)nc3[nH]2)cc(F)c1F [Compound 464] | – | + (a “+” indicates that the compound has an MIC value of 16 micrograms/ml or less)
7 | C[C@H](NCCCNC(=N)N)c1ccc(-n2cc3cc(-c4ccc(C(NC5CN(C(=N)N)C5)C(F)(F)F)cc4)[nH]c3nc2=O)cc1 (some centres unmarked) [Compound 227] | + (a “+” indicates that the compound has an MIC value of 16 micrograms/ml or less) | –
8 | NCCCCc1c(F)ccc(-c2cc3cn(-c4ccc(CNCCCN=C(N)N)cc4)c(=O)nc3[nH]2)c1F [Compound 84] | + (a “+” indicates that the compound has an MIC value of 16 micrograms/ml or less) | –
9 | Cc1c(CC(C)C)cc(CCC[C@H](C)N)cc1-c1cc2cn(-c3ccc(CNCCCNC(=N)N)cc3)c(=O)nc2[nH]1 [Compound 452] | – | + (a “+” indicates that the compound has an MIC value of 16 micrograms/ml or less)
10 | N=C(N)NCCCNCc1c(F)cc(-n2cc3cc(-c4cc(CCCCN)cc(OC(F)(F)F)c4)[nH]c3nc2=O)cc1F [Compound 52] | + (a “+” indicates that the compound has an MIC value of 16 micrograms/ml or less) | –
11 | CCC[C@H](NCCCNC(=N)N)c1ccc(-n2cc3cc(-c4cc(CCC[C@H](C)N)cc(Cl)c4F)[nH]c3nc2=O)cc1 [Compound 415] | – | + (a “+” indicates that the compound has an MIC value of 16 micrograms/ml or less)
12 | C[C@H](NCCCNC(=N)N)c1ccc(-n2cc3cc(-c4cc(CO[C@@H](C)CN)cc(SC(F)(F)F)c4)[nH]c3nc2=O)cc1 [Compound 327] | + (a “+” indicates that the compound has an MIC value of 16 micrograms/ml or less) | –
13 | N=C(N)NCCCNCc1ccc(-n2cc3cc(-c4cc(CS(=O)(=O)CCN)ccc4F)[nH]c3nc2=O)cc1 [Compound 15] | + (a “+” indicates that the compound has an MIC value of 16 micrograms/ml or less) | –
14 | CC(C)c1cc(CCCCN)cc(-c2cc3cn(-c4ccc(CNCCCN=C(N)N)c(F)c4)c(=O)nc3[nH]2)c1 [Compound 77] | + (a “+” indicates that the compound has an MIC value of 16 micrograms/ml or less) | –
15 | C[C@H](CCNC(=N)N)NCc1ccc(-n2cc3cc(-c4cc(CC5CC(N)C5)cc(Cl)c4F)[nH]c3nc2=O)cc1 (some centres unmarked) [Compound 334] | – | + (a “+” indicates that the compound has an MIC value of 16 micrograms/ml or less)
16 | N=C(N)NCCCNCc1ccc(-n2cc3cc(-c4cc(CCCCN)cc(OC(F)F)c4Cl)[nH]c3nc2=O)cc1 [Compound 214] | + (a “+” indicates that the compound has an MIC value of 16 micrograms/ml or less) | –
17 | N=C(N)NCCCNCc1ccc(-n2cc3cc(-c4cc(CC5CCC(N)CC5)cc(Cl)c4F)[nH]c3nc2=O)cc1 (centres unmarked) [Compound 448] | – | + (a “+” indicates that the compound has an MIC value of 16 micrograms/ml or less)
